The values below come from patent US20250027966A1, “A MICROFLUIDIC DEVICE TO DISPENSE A METABOLIC INDICATOR” (Hewlett-Packard Development Company, L.P., priority 2021, published 2025).

For this test, the system named is E. coli. As to the kind of experiment: Resazurin fluorescence assay of E. coli mixed with ampicillin. Type of test: cell-based. The following applies: for fluorescence: 583 nm; for increase in fluorescence signal compared to resazurin alone: 4 hr incubation. The text has this: In some examples, the metabolic indicator includes a fluorogenic compound. A non-limiting example of a fluorogenic compound that may be used as a metabolic indicator includes resazurin which is transformed to resorufin when mixed with living cells, such as with bacteria. […] Resorufin is fluorescent, which allows for monitoring the reaction. For example, resorufin is excited at around 540 nanometers (nm) and emits around 590 nm. Living cells, such as bacteria, may be mixed with resazurin for around one to four hours. For example, after incubation and to overcome the background signal, around 7×10^6 colony forming unit per milliliter (cfu/mL) of Escherichia coli may be present.
FIG. 2C illustrates the example apparatus 200 of FIG. 2A while the imaging device is capturing images of the substrate, in accordance with the present disclosure. As described with regards to FIG. 2B, the imaging device 215 may capture images at any point in time, and/or once a statiscially significant signal is detected. Also, as described with regards to FIG. 2A, resazurin reduction results in an increase in fluorescence. Accordingly, as bacterial concentration increases over time, more resazurin reduction results and the result is an increase in fluorescence. Antibiotic combinations that disrupt bacterial growth may therefore have less fluorescence than those combinations which have no effect. […] This conclusion may be obtained, because region 219-4, region 219-3, and region 219-2 each have a greater fluorescence level as compared to region 219-1, which is the result of more resazurin reduction by living cells (such as bacteria).
Background conversion of resazurin to resorufin (in absence of bacteria) can be calibrated out for increased sensitivity and reduction of assay time. Moreover, the minimum inhibitory concentration of the antibiotic (or antibiotic combination) can be measured, because the microfluidic device 211 is capable of dispensing very small volumes of reagents (e.g., antibiotics), as well as precise volumes of reagent combinations. The rate of fluorescence increase can be correlated to bacterial growth rate and thus the inhibition potential of a particular antibiotic can be measured, as illustrated in the graph included in FIG. 2C. This fluorescence readout may be obtained between 3 and 6 hours, and may thus be used for fast determination of combinations of antibiotics for antibiotic treatment.
As illustrated in the top portion of FIG. 6, a MIC test strip from Liofilchem® containing a gradient of ampicillin was applied on an agar plate coated with E. coli. The minimum inhibitory concentration of ampicillin was approximately 2 μg/mL. The E. coli was mixed with various concentrations of ampicillin (0 to 8 μg/mL) and resazurin, and the fluorescence was measured at various times. The concentrations of ampicillin used was 0 μg/mL, 0.25 μg/mL, 0.5 μg/mL, 1 μg/mL, 2 μg/mL, and 8 μg/mL. […] For the sample including E. coli and 8 μg/mL of ampicillin, the fluorescence increased from approximately 10,000 a.u. at 30 minutes, to approximately, 35,000 a.u. at 3 hours and 4 hours. For the sample including E. coli and 0 μg/mL of ampicillin, the fluorescence increased from approximately 10,000 a.u. at 30 minutes, to approximately, 50,000 a.u. at 3 hours and 10^5 a.u at 4 hours. For the sample including E. coli and 0.25 μg/mL of ampicillin, the fluorescence increased from approximately 10,000 a.u. at 30 minutes, to approximately 60,000 a.u. at 3 hours, and approximately 80,000 a.u. at 4 hours. For the sample including E. coli and 0.5 μg/mL of ampicillin, the fluorescence increased from approximately 10,000 a.u. at 30 minutes, to approximately 70,000 a.u. at 3 hours, and approximately 80,000 a.u. at 4 hours. For the sample including E. coli and 1 μg/mL of ampicillin, the fluorescence increased from approximately 10,000 a.u. at 30 minutes, to approximately 75,000 a.u. at 3 hours, and approximately 10^5 a.u. at 4 hours. […]
On the technique in general: The colour change of resazurin is a common sign of viable cells or microbes.

Structures are written as SMILES.

Consider `CC1(C)S[C@@H]2[C@H](NC(=O)[C@H](N)c3ccccc3)C(=O)N2[C@H]1C(=O)O` [ampicillin], for which the fluorescence result by setting is: (E. coli + 0.25 μg/mL ampicillin + resazurin, 30 minutes) “approximately 10,000 a.u”; (E. coli + 0.25 μg/mL ampicillin + resazurin, 3 hours) “approximately 60,000 a.u”; (E. coli + 0.25 μg/mL ampicillin + resazurin, 4 hours) “approximately 80,000 a.u”; (E. coli + 0.5 μg/mL ampicillin + resazurin, 30 minutes) “approximately 10,000 a.u”; (E. coli + 0.5 μg/mL ampicillin + resazurin, 3 hours) “approximately 70,000 a.u”; (E. coli + 0.5 μg/mL ampicillin + resazurin, 4 hours) “approximately 80,000 a.u”. Further, the fluorescence entry (E. coli + 1 μg/mL ampicillin + resazurin, 30 minutes) is reported as “approximately 10,000 a.u”; the fluorescence result (E. coli + 1 μg/mL ampicillin + resazurin, 3 hours) is on record as “approximately 75,000 a.u”; the fluorescence result (E. coli + 2 μg/mL ampicillin + resazurin, 30 minutes) is on record as “approximately 10,000 a.u”; the fluorescence result (E. coli + 2 μg/mL ampicillin + resazurin, 3 hours) is on record as “approximately 75,000 a.u”; the fluorescence result (E. coli + 8 μg/mL ampicillin + resazurin, 30 minutes) is listed as “approximately 10,000 a.u”; the fluorescence (E. coli + 8 μg/mL ampicillin + resazurin, 3 hours) is given as ~35,000 a.u. Also, the fluorescence (E. coli + 8 μg/mL ampicillin + resazurin, 4 hours) is ~35,000 a.u. In addition, the “increase in fluorescence signal compared to resazurin alone” value runs as follows: ([ampicillin]<2 μg/mL) 6 ×; (ampicillin 8 μg/mL) 2 ×.
